Experimental data taken from US20090227492A1, “TREATMENT OF NEUROLOGICAL CONDITIONS USING COMPLEMENT C5a RECEPTOR MODULATORS” (priority 2004, published 2009).
Bridge positions count the residues as written; N and C are the ends. Square brackets hold non-standard residues; d marks the D form. Peptide text beside a SMILES is read from it. * marks the point of attachment. Hydrocinnamoyl = O=C(CCc1ccccc1)*; Cit = NC(=O)NCCC[C@H](N)C(=O)O; dCha = N[C@H](CC1CCCCC1)C(=O)O; Orn = NCCC[C@H](N)C(=O)O

Tests used:
[1] = tested on: Transgenic Sprague-Dawley rats carrying mutant SOD-1 gene; assay: transgenic SOD-1 rat model of ALS; assay type: in vivo; settings: approximately 1 mg/kg/day in drinking water from 70 days of age; for average age of onset of loss of motor function: male rats, untreated 116+/−4 days; for percent survival over time (mortality) / percentage of rats showing onset of motor symptoms over time: vs untreated
Protocol: Treatment commenced when the rats were 70 days of age. Drugs were dosed in the drinking water at approximately 1 mg/kg/day. A group of 3 wild type (WT) Sprague-Dawley rats (G63) were included as sham control animals. Rats were then monitored daily for signs of motor disturbance, using the following scale:
Body weights were also recorded daily. Rats were euthanised when they reached a score of 4 for the righting response, or had lost >20% of their peak body weight.

3-NP rat model [2] = assay: histological and histochemical examination of rat brain sections from the 3-NP model (naphthyl esterase, TUNEL); assay type: in vivo; settings: brain sections of rats of Example 2
Text: Paraffin sections of brain tissue from the rats used in Example 2 were stained with hematoxylin and eosin and examined under the microscope. […] The TUNEL (TdT-mediated dUTP Nick-End Labeling) assay (Gavrieli, Y., et al. (1992) J. Cell. Biol. 119, 493.) measures nuclear DNA fragmentation, which is an important biochemical hallmark of apoptosis. […] Brain sections were therefore also stained for TUNEL analysis using a standard kit (ApopTag Plus/TUNEL method; Chemicon). Striatal sections of brains containing the area of interest were fixed to a slide and deparaffinized. Slides were then pretreated with Proteinase K (20 μg/mL), and endogenous peroxidases quenched with 3% hydrogen peroxide. Equilibration buffer was then added, followed by TdT enzyme for 1 hour. Samples were then washed, and anti-digoxigenin conjugate added for 30 min. Peroxidase substrate (diaminobenzidine) was then added, and colour allowed to develop over 6 min. Samples were then counterstained with 0.5% methyl green and mounted with Permount. Sections were washed in PBS (0.1 M, ph 7.4) in between each step.

3-NP rat model [3] = assay: 3-NP rat model (3-nitropropionic acid neurotoxicity); assay type: in vivo
Protocol: Unless otherwise stated, the protocol for induction of 3-NP neurotoxicity employed in the present study was similar to that of Blum et al (2001; 2002), except that we used 42 mg/kg/day for 7 days rather than 56 mg/kg for 5 days. Briefly, a 90 mg/mL solution of 3-NP in PBS (0.1 M, pH 7.4) was prepared and adjusted to pH 7.4 with 5M NaOH. Alzet osmotic mini-pumps (model 2ML1, delivering 10 μL/hr for 7 days) filled with this solution were implanted into 12 week old male Lewis rats, so that each rat received exactly 42 mg/kg/day.
Rats were housed in individual cages. The rats were anaesthetised with ketamine, xylazine and zolazapam. A pump was inserted s.c. into the back of each rat via an incision between the scapulae, and the incision closed with wound clips. Following recovery from anaesthesia, food intake, body weight and neurological were evaluated daily over the next 7 days. Neurological and behavioural evaluation according to standard criteria was also performed at several points by an observer blinded to the identity of the groups.
After completion of the study, rats were deeply anaesthetised with xylazine and ketamine. The rats were then perfused with approximately 100 mL of sodium nitrite solution to remove blood, followed by approximately 400 mL of formaldehyde solution to fix the brains in situ. Brains were then carefully removed and stored in formaldehyde solution for at least 3 days, before processing for histology. Slides were stained with cresyl violet and examined by light microscopy. […]
PMX53 (10 mg/kg/day) and PMX205 (10 mg/kg/day) were administered daily by gavage and ibuprofen (30 mg/kg/day) administered in the drinking water, beginning 2 days prior to 3-NP administration. Infliximab was administered as a single 5 mg/kg i.v. infusion on Day 0. […]

[4] = levels of PMX compounds in brain and plasma following i.v. injection (blood-brain barrier); settings: female Wistar rats; 3 mg/kg i.v.; 15 min; brain perfused with saline
Protocol: Rats were then left for 15 min, at which point a sample of blood was taken from the tail for plasma collection, and rats were then perfused via cardiac puncture with 150 mL of saline to remove blood from the brain. The brain was then dissected out. Plasma and brain samples of were prepared for pharmacokinetic analysis, and the levels of PMX compounds determined in each sample.

[5] = Example 2, PMX53, PMX205 10 mg/kg/day gavage, ibuprofen 30 mg/kg/day drinking water, infliximab 5 mg/kg i.v. Day 0, 7 days

CC(=O)N[C@@H](Cc1ccccc1)C(=O)N[C@H]1CCCNC(=O)[C@H](CCCNC(=N)N)NC(=O)[C@H](Cc2c[nH]c3ccccc23)NC(=O)[C@@H](CC2CCCCC2)NC(=O)[C@@H]2CCCN2C1=O [PMX53, AcPhe[Orn-Pro-D-Cyclohexylalanine-Trp-Arg]]
average age of onset of loss of motor function [1]: 124 ± 10 days | percent survival over time (mortality) [1]: possibly a small improvement | percentage of rats showing onset of motor symptoms over time [1]: possibly a small improvement | degree of apoptosis (TUNEL) (3-NP rat model [2]): reduced the degree of apoptosis | neutrophil infiltration (naphthyl esterase stain) (3-NP rat model [2]): completely prevented neutrophil infiltration | loss of body weight (3-NP rat model [3]; Example 1 pilot, 2 mg/kg daily in drinking water plus 1 mg/kg s.c. Days 0, 3, 6, 8, Days 5-7, P<0.05, n=5, vs untreated): significantly less loss of body weight | neurological/behavioural score (3-NP rat model [3]; Example 1 pilot, 2 mg/kg daily in drinking water plus 1 mg/kg s.c., Days 4-9, P<0.05, n=5, vs untreated): significantly decreased neurological/behavioural scores | food intake (3-NP rat model [3]; Example 1 pilot, 2 mg/kg daily in drinking water plus 1 mg/kg s.c., Days 5-7, P<0.05, n=5, vs untreated): significantly greater food intake | necrotic cells in the striatal regions (cresyl violet histology) (3-NP rat model [3]; Example 1 pilot, vs controls): fewer necrotic cells | necrotic cells in the striatal regions (cresyl violet histology) (3-NP rat model [3]; Example 2, 10 mg/kg/day gavage, day 7): fewer necrotic cells | neurological/behavioural score (3-NP rat model [3]; [5]): significant protection

NC(=O)NCCC[C@@H]1NC(=O)[C@H](Cc2c[nH]c3ccccc23)NC(=O)[C@@H](CC2CCCCC2)NC(=O)[C@@H]2CCCN2C(=O)[C@@H](NC(=O)CCc2ccccc2)CCCNC1=O [PMX200, HC-[OPdChaWCit]] (Hydrocinnamoyl-[Orn]P[dCha]W[Cit]; lactam 1-C)
levels in the brain as a percentage of the levels in the blood (absorption into the brain) [4]: lower degree of absorption

N=C(N)NCCC[C@@H]1NC(=O)[C@H](Cc2c[nH]c3ccccc23)NC(=O)[C@@H](CC2CCCCC2)NC(=O)[C@@H]2CCCN2C(=O)[C@@H](NC(=O)CCc2ccccc2)CCCNC1=O [PMX205, Hydrocinnamate-[OpdChaWR]] (Hydrocinnamoyl-[Orn]P[dCha]WR; lactam 1-C)
period between the first loss of body weight and the first observable loss of motor function [1]: particularly striking | average age of onset of loss of motor function [1]: 138 ± 7 days | percent survival over time (mortality) [1]: clear delay of mortality | percentage of rats showing onset of motor symptoms over time [1]: clear delay of motor onset | degree of apoptosis (TUNEL) (3-NP rat model [2]): reduced the degree of apoptosis | neutrophil infiltration (naphthyl esterase stain) (3-NP rat model [2]): completely prevented neutrophil infiltration | neurological/behavioural score (3-NP rat model [3]; [5]): significant protection

CC(C)Cc1ccc(C(C)C(=O)O)cc1 (stereo not drawn) [ibuprofen, reference compound]
neurological/behavioural score (3-NP rat model [3]; [5]): an effect only up to Day 5

infliximab [reference compound]
neurological/behavioural score (3-NP rat model [3]; [5]): little if any effect
